Assay results as given in patent publication US9181305B2, “Exendin-4 peptide analogues” (SANOFI, priority 2012, dated 2015).
*1 amine or outer side, *2 acyl side, *3 side chain or, on linkers, in order; H or OH if unused. Where a SMILES comes first, the peptide text is derived from it. Side-chain parts run from the residue outwards. [ ]: non-standard residue; d: D form. The star is where a group is joined. γGlu = O=C(O)[C@H](CCC(=O)[*:2])N[*:1]; Palmitoyl = CCCCCCCCCCCCCCCC(=O)*

Columns and labels:
[1] = target: T1, human glucagon receptor (hGlucagon R) (Homo sapiens, UniProt P47871); experiment: cAMP response (HTRF) of HEK-293 cells stably expressing human glucagon receptor; format: cell-based; settings: read-out: EC50 hGlucagonR
T1 construct: expressed in transfected cells; host or cells: HEK-293
T1 sequence (P47871 26-477): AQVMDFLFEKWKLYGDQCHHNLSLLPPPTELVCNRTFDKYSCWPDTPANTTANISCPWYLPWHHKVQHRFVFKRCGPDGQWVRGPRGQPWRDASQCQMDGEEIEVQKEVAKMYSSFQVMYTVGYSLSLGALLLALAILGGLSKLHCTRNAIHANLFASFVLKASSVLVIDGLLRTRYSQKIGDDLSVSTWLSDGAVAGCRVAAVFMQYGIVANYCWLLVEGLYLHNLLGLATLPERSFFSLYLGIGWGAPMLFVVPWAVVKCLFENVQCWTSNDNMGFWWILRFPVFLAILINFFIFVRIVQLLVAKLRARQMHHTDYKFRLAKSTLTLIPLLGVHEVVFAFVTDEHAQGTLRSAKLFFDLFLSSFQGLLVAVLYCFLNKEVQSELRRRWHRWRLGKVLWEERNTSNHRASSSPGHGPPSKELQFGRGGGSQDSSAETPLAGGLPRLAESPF
Experimental: cAMP content of cells was determined using a kit from Cisbio Corp. (cat. no. 62AM4PEC) based on HTRF (Homogenous Time Resolved Fluorescence). For preparation, cells were split into T175 culture flasks and grown overnight to near confluency in medium (DMEM/10% FBS). Medium was then removed and cells washed with PBS lacking calcium and magnesium, followed by proteinase treatment with accutase (Sigma-Aldrich cat. no. A6964). Detached cells were washed and resuspended in assay buffer (1×HBSS; 20 mM HEPES, 0.1% BSA, 2 mM IBMX) and cellular density determined. […] For measurement, 25 μl of test compound in assay buffer was added to the wells, followed by incubation for 30 minutes at room temperature.

[2] = target: T2, human GLP-1 receptor (hGLP-1 R) (Homo sapiens, UniProt P43220); experiment: cAMP response (HTRF) of HEK-293 cells stably expressing human GLP-1 receptor; format: cell-based; settings: HEK-293 cells expressing human GLP-1 receptor, cAMP formation
T2 construct: expressed in transfected cells; host or cells: HEK-293
T2 sequence (P43220 24-463): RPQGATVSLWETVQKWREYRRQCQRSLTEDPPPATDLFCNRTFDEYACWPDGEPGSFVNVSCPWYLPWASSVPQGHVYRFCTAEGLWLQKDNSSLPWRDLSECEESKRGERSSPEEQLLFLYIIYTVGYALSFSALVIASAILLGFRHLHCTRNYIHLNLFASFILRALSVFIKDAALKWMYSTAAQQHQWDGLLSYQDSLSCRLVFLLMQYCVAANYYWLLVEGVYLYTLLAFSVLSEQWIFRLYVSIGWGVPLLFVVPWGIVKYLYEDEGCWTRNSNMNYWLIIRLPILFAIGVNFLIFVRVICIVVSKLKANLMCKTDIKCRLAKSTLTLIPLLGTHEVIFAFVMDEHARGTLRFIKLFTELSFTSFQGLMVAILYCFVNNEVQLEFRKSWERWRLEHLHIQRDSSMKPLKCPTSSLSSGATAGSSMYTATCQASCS
In short: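 Detached HEK-293 cells stably expressing the receptor were suspended in HBSS with 20 mM HEPES, 0.1% BSA and 2 mM IBMX. Test compound was added for 30 min at room temperature, and cellular cAMP was quantified by HTRF.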

[3] = physchem; format: physicochemical
Experimental: Prior to the testing of solubility and stability of a peptide batch, its content was determined. Therefore, two parameters were investigated, its purity (HPLC-UV) and the amount of salt load of the batch (ion chromatography). Since synthesized peptides contain primarily trifluoracetate anions, only anion chromatography was performed. The content was then calculated based on the assumption that peptide-related impurities are detected at the same UV-absorption rate as the target peptide, as well as that cations are not present in the sample.
Therefore, solutions from solid samples were prepared in different buffer systems with a concentration of 1.0 mg/mL compound based on the previously determined content. HPLC-UV was performed after 2 h of gentle agitation from the supernatant, which was obtained by 20 min of centrifugation at 4000 rpm. […] This analysis also served as t0 for the stability testing.
Instrument: Agilent 1100, column: X-Bridge C18 3.5 μm 2.1×150 mm (Waters), eluent: A: H20+500 ppm TFA/B: Methanol, flow: 0.55 ml/min, gradient: 0-5 min: 10-60% B; 5-15 min: 60-99% B; detection: 214 nm.

Row | SMILES | EC50 [1] | EC50 [2] | solubility at 2 h ([3]; pH 4.5) | solubility at 2 h ([3]; pH 7.4)
1 | CC[C@H](C)[C@H](NC(=O)[C@H](Cc1ccccc1)NC(=O)[C@H](CC(=O)O)NC(=O)[C@H](CCC(N)=O)NC(=O)[C@H](C)NC(=O)[C@H](CCCNC(=N)N)NC(=O)[C@H](CCCNC(=N)N)NC(=O)[C@H](CCC(=O)O)NC(=O)[C@H](CC(=O)O)NC(=O)[C@H](CCSC)NC(=O)[C@H](CCC(N)=O)NC(=O)[C@H](CCCCN)NC(=O)[C@H](CO)NC(=O)[C@H](CC(C)C)NC(=O)[C@H](CC(=O)O)NC(=O)[C@H](CO)NC(=O)[C@@H](NC(=O)[C@H](Cc1ccccc1)NC(=O)[C@@H](NC(=O)CNC(=O)[C@H](CCC(N)=O)NC(=O)[C@H](CO)NC(=O)[C@@H](N)Cc1c[nH]cn1)[C@@H](C)O)[C@@H](C)O)C(=O)N[C@@H](CCC(=O)O)C(=O)N[C@@H](Cc1c[nH]c2ccccc12)C(=O)N[C@@H](CC(C)C)C(=O)N[C@@H](CCCCN)C(=O)N[C@@H](CC(N)=O)C(=O)NCC(=O)NCC(=O)N1CCC[C@H]1C(=O)N[C@@H](CO)C(=O)N[C@@H](CO)C(=O)NCC(=O)N[C@@H](C)C(=O)N1CCC[C@H]1C(=O)N1CCC[C@H]1C(=O)N1CCC[C@H]1C(=O)N[C@@H](CO)C(N)=O [(5)] (H-HSQGTFTSDLSKQMDERRAQDFIEWLKNGGPSSGAPPPS-NH2) | 67 pM |  |  | 
2 | CCCCCCCCCCCCCCCC(=O)N[C@@H](CCC(=O)NCCCC[C@H](NC(=O)[C@H](CO)NC(=O)[C@@H]1CCCN1C(=O)[C@@H]1CCCN1C(=O)[C@@H]1CCCN1C(=O)[C@H](C)NC(=O)CNC(=O)[C@H](CO)NC(=O)[C@H](CO)NC(=O)[C@@H]1CCCN1C(=O)CNC(=O)[C@H](C)NC(=O)[C@H](CC(N)=O)NC(=O)[C@H](CCCCN)NC(=O)[C@H](CC(C)C)NC(=O)[C@H](Cc1c[nH]c2ccccc12)NC(=O)[C@H](CCC(=O)O)NC(=O)[C@@H](NC(=O)[C@H](Cc1ccccc1)NC(=O)[C@H](CC(=O)O)NC(=O)[C@H](CCC(N)=O)NC(=O)[C@H](C)NC(=O)[C@H](CCCNC(=N)N)NC(=O)[C@H](CCCNC(=N)N)NC(=O)[C@H](CO)NC(=O)[C@H](CCC(=O)O)NC(=O)[C@H](CCSC)NC(=O)[C@H](CCC(N)=O)NC(=O)[C@H](CCCCN)NC(=O)[C@H](CO)NC(=O)[C@H](CC(C)C)NC(=O)[C@H](CC(=O)O)NC(=O)[C@H](CO)NC(=O)[C@@H](NC(=O)[C@H](Cc1ccccc1)NC(=O)[C@@H](NC(=O)CNC(=O)[C@H](CCC(N)=O)NC(=O)[C@@H](CO)NC(=O)[C@@H](N)Cc1c[nH]cn1)[C@@H](C)O)[C@@H](C)O)[C@@H](C)CC)C(N)=O)C(=O)O [(64)] (H-H[dS]QGTFTSDLSKQMESRRAQDFIEWLKNAGPSSGAPPPSK([γGlu-Palmitoyl])-NH2) | 67 pM |  |  | 
3 | CCCCCCCCCCCCCCCC(=O)N[C@@H](CCC(=O)NCCCC[C@H](NC(=O)[C@H](CO)NC(=O)[C@@H]1CCCN1C(=O)[C@@H]1CCCN1C(=O)[C@@H]1CCCN1C(=O)[C@H](C)NC(=O)CNC(=O)[C@H](CO)NC(=O)[C@H](CO)NC(=O)[C@@H]1CCCN1C(=O)CNC(=O)[C@@H](NC(=O)[C@H](CC(N)=O)NC(=O)[C@H](CCCCN)NC(=O)[C@H](CC(C)C)NC(=O)[C@H](Cc1c[nH]c2ccccc12)NC(=O)[C@H](CCC(=O)O)NC(=O)[C@@H](NC(=O)[C@H](Cc1ccccc1)NC(=O)[C@H](CC(=O)O)NC(=O)[C@H](CCC(N)=O)NC(=O)[C@H](C)NC(=O)[C@H](CCCNC(=N)N)NC(=O)[C@H](CCCNC(=N)N)NC(=O)[C@H](CO)NC(=O)[C@H](CC(=O)O)NC(=O)[C@H](CCSC)NC(=O)[C@H](CCC(N)=O)NC(=O)[C@H](CCCCN)NC(=O)[C@H](CO)NC(=O)[C@H](CC(C)C)NC(=O)[C@H](CC(=O)O)NC(=O)[C@H](CO)NC(=O)[C@@H](NC(=O)[C@H](Cc1ccccc1)NC(=O)[C@@H](NC(=O)CNC(=O)[C@H](CCC(N)=O)NC(=O)[C@@H](CO)NC(=O)[C@@H](N)Cc1c[nH]cn1)[C@@H](C)O)[C@@H](C)O)[C@@H](C)CC)[C@@H](C)O)C(N)=O)C(=O)O [(71)] | 1.9 pM |  |  | 
4 | CCCCCCCCCCCCCCCC(=O)N[C@@H](CCC(=O)NCCCC[C@H](NC(=O)[C@H](CO)NC(=O)[C@@H]1CCCN1C(=O)[C@@H]1CCCN1C(=O)[C@@H]1CCCN1C(=O)[C@H](C)NC(=O)CNC(=O)[C@H](CO)NC(=O)[C@H](CO)NC(=O)[C@@H]1CCCN1C(=O)CNC(=O)CNC(=O)[C@H](CCCNC(=N)N)NC(=O)[C@H](CCCCN)NC(=O)[C@H](CC(C)C)NC(=O)[C@H](Cc1c[nH]c2ccccc12)NC(=O)[C@H](CCC(=O)O)NC(=O)[C@@H](NC(=O)[C@H](Cc1ccccc1)NC(=O)[C@H](CC(=O)O)NC(=O)[C@H](CCC(N)=O)NC(=O)[C@H](C)NC(=O)[C@H](CCCNC(=N)N)NC(=O)[C@H](CCCNC(=N)N)NC(=O)[C@H](CO)NC(=O)[C@H](CCC(=O)O)NC(=O)[C@H](CCSC)NC(=O)[C@H](CCC(N)=O)NC(=O)[C@H](CCCCN)NC(=O)[C@H](CO)NC(=O)[C@H](CC(C)C)NC(=O)[C@H](CC(=O)O)NC(=O)[C@H](CO)NC(=O)[C@@H](NC(=O)[C@H](Cc1ccccc1)NC(=O)[C@@H](NC(=O)CNC(=O)[C@H](CCC(N)=O)NC(=O)[C@@H](CO)NC(=O)[C@@H](N)Cc1c[nH]cn1)[C@@H](C)O)[C@@H](C)O)[C@@H](C)CC)C(N)=O)C(=O)O [(75)] (H-H[dS]QGTFTSDLSKQMESRRAQDFIEWLKRGGPSSGAPPPSK([γGlu-Palmitoyl])-NH2) |  | 4.6 pM | > 1000 µg/mL | > 1000 µg/mL
5 | CCCCCCCCCCCCCCCC(=O)N[C@@H](CCC(=O)NCCCC[C@H](NC(=O)[C@H](CO)NC(=O)[C@@H]1CCCN1C(=O)[C@@H]1CCCN1C(=O)[C@@H]1CCCN1C(=O)[C@H](C)NC(=O)CNC(=O)[C@H](CO)NC(=O)[C@H](CO)NC(=O)[C@@H]1CCCN1C(=O)CNC(=O)CNC(=O)[C@H](CCCCN)NC(=O)[C@H](CCCCN)NC(=O)[C@H](CC(C)C)NC(=O)[C@H](Cc1c[nH]c2ccccc12)NC(=O)[C@H](CCC(=O)O)NC(=O)[C@@H](NC(=O)[C@H](Cc1ccccc1)NC(=O)[C@H](CC(=O)O)NC(=O)[C@H](CCC(N)=O)NC(=O)[C@H](C)NC(=O)[C@H](CCCNC(=N)N)NC(=O)[C@H](CCCNC(=N)N)NC(=O)[C@H](CO)NC(=O)[C@H](CCC(=O)O)NC(=O)[C@H](CCSC)NC(=O)[C@H](CCC(N)=O)NC(=O)[C@H](CCCCN)NC(=O)[C@H](CO)NC(=O)[C@H](CC(C)C)NC(=O)[C@H](CC(=O)O)NC(=O)[C@H](CO)NC(=O)[C@@H](NC(=O)[C@H](Cc1ccccc1)NC(=O)[C@@H](NC(=O)CNC(=O)[C@H](CCC(N)=O)NC(=O)[C@@H](CO)NC(=O)[C@@H](N)Cc1c[nH]cn1)[C@@H](C)O)[C@@H](C)O)[C@@H](C)CC)C(N)=O)C(=O)O [(77)] (H-H[dS]QGTFTSDLSKQMESRRAQDFIEWLKKGGPSSGAPPPSK([γGlu-Palmitoyl])-NH2) |  |  | > 1000 µg/mL | > 1000 µg/mL
6 | CCCCCCCCCCCCCCCC(=O)N[C@@H](CCC(=O)NCCCC[C@H](NC(=O)[C@H](CO)NC(=O)[C@@H]1CCCN1C(=O)[C@@H]1CCCN1C(=O)[C@@H]1CCCN1C(=O)[C@H](C)NC(=O)CNC(=O)[C@H](CO)NC(=O)[C@H](CO)NC(=O)[C@@H]1CCCN1C(=O)CNC(=O)CNC(=O)[C@H](CO)NC(=O)[C@H](CCCCN)NC(=O)[C@H](CC(C)C)NC(=O)[C@H](Cc1c[nH]c2ccccc12)NC(=O)[C@H](CCC(=O)O)NC(=O)[C@@H](NC(=O)[C@H](Cc1ccccc1)NC(=O)[C@H](CC(=O)O)NC(=O)[C@H](CCC(N)=O)NC(=O)[C@H](C)NC(=O)[C@H](CCCNC(=N)N)NC(=O)[C@H](CCCNC(=N)N)NC(=O)[C@H](CO)NC(=O)[C@H](CCC(=O)O)NC(=O)[C@H](CCSC)NC(=O)[C@H](CCC(N)=O)NC(=O)[C@H](CCCCN)NC(=O)[C@H](CO)NC(=O)[C@H](CC(C)C)NC(=O)[C@H](CC(=O)O)NC(=O)[C@H](CO)NC(=O)[C@@H](NC(=O)[C@H](Cc1ccccc1)NC(=O)[C@@H](NC(=O)CNC(=O)[C@H](CCC(N)=O)NC(=O)[C@@H](CO)NC(=O)[C@@H](N)Cc1c[nH]cn1)[C@@H](C)O)[C@@H](C)O)[C@@H](C)CC)C(N)=O)C(=O)O [(78)] (H-H[dS]QGTFTSDLSKQMESRRAQDFIEWLKSGGPSSGAPPPSK([γGlu-Palmitoyl])-NH2) |  | 4.2 pM | > 1000 µg/mL | > 1000 µg/mL
